Results as given in article PMC10661773, “Cytotoxic pathways activated by multifunctional thiosemicarbazones targeting sigma-2 receptors in breast and lung carcinoma cells” (Pharmacological Reports, 2023).

How the values were obtained:
P-gp = target: T1, P-gp (Homo sapiens, UniProt P08183); assay: P-gp activity, Calcein-AM assay in MDCK-MDR1 cells; assay type: cell-based; details: read-out: P-gp Activity EC50 ± SEM
T1 construct: expressed in transfected cells; host or cells: MDCK-MDR1
Experimental: According to a previously reported procedure, MDCK-MDR1 cell lines (50,000 cells per well) were seeded into black CulturePlate 96/wells plate with […] medium and grown overnight to confluence. Aliquots (100 µL) of tested compounds in culture medium, at scalar concentrations ranging from 0,1 to 100 µM, were added to each well. The plate was incubated at 37 °C for 30 min, Calcein-AM in phosphate buffered saline (PBS, […]) was added to each well at a final concentration of […], and the plate was incubated for 30 min. The plate was washed 3 times with […] ice cold PBS, Saline buffer ([…]) was added to each well and the plate was read by a PerkinElmer Victor3 spectrofluorimeter at excitation and emission wavelengths of 485 nm and 535 nm, respectively. Under these conditions, calcein cell accumulation in the absence and in the presence of tested compounds was evaluated, and a fluorescence basal level was estimated by untreated cells. In treated wells, the increase of fluorescence with respect to the basal level was measured, EC50 values were determined by fitting the fluorescence increase percentage versus log[dose] with GraphPad Prism Software 5,0 (GraphPad Software, Inc,: San Diego, CA).

caspase 3 in A549 cells = assay: Caspase 3 activity, fluorimetric; assay type: cell-based, human; details: A549, 2 h, 50 µM
Experimental: (§1) Activation of caspase 3, caspase 7 and caspase 9 was measured using the Caspase 3/7 Fluorescence Assay kit (Cayman Chemical, Ann Arbor, MI; #10,009,135) and the Caspase 9 fluorimetric assay kit (Enzo Life Science, Roma, Italy; #ALX-850-224). The results were expressed as nmoles of the hydrolyzed substrate of each caspase/mg cellular proteins, according to a previously set titration curve.

caspase 3 in MCF7 cells = assay: Caspase 3 activity, fluorimetric; assay type: cell-based, human; details: MCF7, 2 h, 50 µM
Experimental: as §1

caspase 7 in A549 cells = assay: Caspase 7 activity, fluorimetric; assay type: cell-based, human; details: A549, 2 h, 50 µM
Experimental: as §1

caspase 7 in MCF7 cells = assay: Caspase 7 activity, fluorimetric; assay type: cell-based, human; details: MCF7, 2 h, 50 µM
Experimental: as §1

[1] = test system: GRP78, ATF6, IRE1, PERK in A549 cells; assay: ER stress markers, qRT-PCR and immunoblotting; assay type: cell-based, human; details: A549, 2 h, 50 µM
Experimental: (§2) 1 μg total RNA was reverse-transcribed using the iScript Reverse Transcription Supermix kit (Bio-Rad Laboratories, Hercules, CA; #1,708,840), according to the manufacturer’s instruction. 25 ng cDNA were amplified with 10 μL IQ™ SYBR Green Supermix (Bio-Rad Laboratories, # 1708880B05). Primers were designed with the qPrimer Depot software (http://primerdepot.nci.nih.gov/). qRT-PCR was carried out with a CFX96™ Real-Time Detector System (Bio-Rad Laboratories). Cycling conditions were: 30 s at 95 °C, followed by 40 cycles of denaturation (15 s at 95 °C), annealing/extension (30 s at 60 °C). The same cDNA preparation was used to quantify the genes of interest and the housekeeping gene S14, used to normalize gene expression. The relative quantitation of each sample was carried out using the Gene Expression Quantitation software (Bio-Rad Laboratories). Results were expressed in arbitrary units. For each gene, the expression in untreated cells was assumed to be “1”.
(§3) Cells were rinsed with ice-cold lysis buffer (50 mM, Tris, 10 mM EDTA, 1% v/v Triton-X100), supplemented with the protease inhibitor cocktail set III (80 μM aprotinin, 5 mM bestatin, 1.5 mM leupeptin, 1 mM pepstatin; Sigma, # 535,140), 2 mM phenylmethylsulfonyl fluoride (Sigma: #P7626) and 1 mM Na3VO4, (Sigma; #S6508) then sonicated and centrifuged at 13,000 × g for 10 min at 4 °C. 20 μg protein extracts were subjected to SDS–PAGE and probed with the antibodies for: GRP78 (#ab21685), ATF6 (#ab122897), IRE-1 (#ab37073), PERK (#ab65142), actin (#ab1801) (all from Abcam, Cambridge, UK), followed by a peroxidase-conjugated secondary antibody (Bio-Rad Laboratories). The membranes were washed with Tris-buffered saline-Tween 0.1% v/v solution, and the proteins were detected by enhanced chemiluminescence (Bio-Rad Laboratories, #1,705,061). The densitometric analysis was performed using the ImageJ software (https://imagej.nih.gov/), calculating the ratio protein of interest/actin band density, putting actin band density as 1 relative unit in each condition. Densitometric analysis and whole blots are included as Supporting Information.

[2] = test system: GRP78, ATF6, IRE1, PERK in MCF7 cells; assay: ER stress markers, qRT-PCR and immunoblotting; assay type: cell-based, human; details: MCF7, 2 h, 50 µM
Experimental: as §2, §3

A549 cells [3] = assay: Mitochondrial ROS, MitoSOX staining; assay type: cell-based, human; details: A549, 2 h, 50 µM
Experimental: (§4) Intramitochondrial reactive oxygen species (ROS) were measured using the MitoSOX fluorescent probe (Invitrogen ThermoScientific, # M36008), according to the manufacturer’s instructions. For total ROS, cells were incubated with 5 µmol/L of 5-(and-6)-chlorometyl-20,70-dichlorodihydro-fluorescein diacetate-acetoxymethyl ester (DCFDA-AM, Sigma, #21,884), as described by Riganti et al. 2015 [21]. The results are expressed as nmoles/mg mitochondrial or cellular proteins, respectively.

MCF7 cells [4] = assay: Mitochondrial ROS, MitoSOX staining; assay type: cell-based, human; details: MCF7, 2 h, 50 µM
Experimental: as §4

MCF7 and A549 cells = assay: Whole cell ROS, DCFDA-AM probe; assay type: cell-based, human; details: MCF7 and A549, 2 h, 50 µM
Experimental: as §4

A549 cells [5] = assay: Mitochondrial depolarization, JC-1 staining; assay type: cell-based, human; details: A549, 2 h, 50 µM
Experimental: (§5) Staining with the JC-1 fluorescent probe (Biotium Inc., Freemont, CA; #30,001-30001-T) was performed as described in Riganti et al. 2015 [21]. Fluorescence units were used to calculate the percentage of green-fluorescent (i.e., depolarized) mitochondria vs red-fluorescent (i.e., polarized) mitochondria.

MCF7 cells [6] = assay: Mitochondrial depolarization, JC-1 staining; assay type: cell-based, human; details: MCF7, 2 h, 50 µM
Experimental: as §5

sigma-2 receptors = sigma-2 receptors (Homo sapiens, UniProt Q5BJF2); details: read-out: Sigma-2 Affinity Ki; cited from earlier work
Chain of sigma-2 receptors (Q5BJF2 whole entry): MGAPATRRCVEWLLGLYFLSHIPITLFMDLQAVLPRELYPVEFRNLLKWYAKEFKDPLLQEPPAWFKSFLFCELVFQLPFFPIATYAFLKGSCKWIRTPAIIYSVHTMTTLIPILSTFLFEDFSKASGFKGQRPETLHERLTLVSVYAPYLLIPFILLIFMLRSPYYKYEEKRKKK

T1 sequence (P08183 whole entry): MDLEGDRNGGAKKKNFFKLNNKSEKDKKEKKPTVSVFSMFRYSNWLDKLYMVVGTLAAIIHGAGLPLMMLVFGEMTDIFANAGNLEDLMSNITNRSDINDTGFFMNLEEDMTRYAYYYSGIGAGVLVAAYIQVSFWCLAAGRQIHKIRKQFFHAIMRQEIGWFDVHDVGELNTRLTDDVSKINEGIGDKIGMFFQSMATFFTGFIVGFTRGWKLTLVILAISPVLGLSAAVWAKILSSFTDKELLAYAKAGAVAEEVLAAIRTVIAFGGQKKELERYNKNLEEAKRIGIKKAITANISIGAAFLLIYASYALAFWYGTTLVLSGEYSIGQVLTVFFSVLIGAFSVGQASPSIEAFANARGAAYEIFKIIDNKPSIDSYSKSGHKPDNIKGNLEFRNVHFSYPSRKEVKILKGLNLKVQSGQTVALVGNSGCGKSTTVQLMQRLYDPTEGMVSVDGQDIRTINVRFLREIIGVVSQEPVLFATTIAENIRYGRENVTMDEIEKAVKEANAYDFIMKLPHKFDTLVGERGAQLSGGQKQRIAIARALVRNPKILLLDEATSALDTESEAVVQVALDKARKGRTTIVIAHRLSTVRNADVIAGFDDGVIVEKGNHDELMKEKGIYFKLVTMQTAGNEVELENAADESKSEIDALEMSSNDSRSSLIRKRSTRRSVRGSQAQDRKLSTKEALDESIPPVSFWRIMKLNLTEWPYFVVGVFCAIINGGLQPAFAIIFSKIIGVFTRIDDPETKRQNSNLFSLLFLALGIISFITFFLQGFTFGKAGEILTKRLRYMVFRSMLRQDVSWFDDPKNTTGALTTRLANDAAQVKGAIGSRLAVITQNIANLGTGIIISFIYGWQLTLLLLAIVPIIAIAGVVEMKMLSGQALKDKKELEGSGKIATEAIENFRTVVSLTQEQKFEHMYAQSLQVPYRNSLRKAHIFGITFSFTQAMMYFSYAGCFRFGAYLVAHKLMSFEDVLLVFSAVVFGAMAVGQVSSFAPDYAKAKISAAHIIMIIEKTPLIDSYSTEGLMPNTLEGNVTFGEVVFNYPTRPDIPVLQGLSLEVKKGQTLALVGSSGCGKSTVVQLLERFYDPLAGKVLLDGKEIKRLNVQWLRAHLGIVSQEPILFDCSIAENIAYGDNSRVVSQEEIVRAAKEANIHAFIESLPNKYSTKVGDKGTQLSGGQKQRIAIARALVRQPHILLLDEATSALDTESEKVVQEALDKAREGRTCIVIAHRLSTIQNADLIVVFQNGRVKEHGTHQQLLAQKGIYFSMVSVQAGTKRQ

CN(C)C(=S)N/N=C1\C(=O)N(CCCCN2CCC3(CC2)OCc2ccccc23)c2ccccc21 [FA4, (Z)-2-(1-(4-(3H-spiro[isobenzofuran-1,4′-piperidine]-1′-yl)butyl)-2-oxoindolin-3-ylidene)-N,N-dimethylhydrazinecarbothioamide]
EC50 (P-gp): 3800 nM
Caspase 3 activation (caspase 3 in A549 cells): most potent inducer of caspase 3 in both cell lines
Caspase 3 activation (caspase 3 in MCF7 cells): most potent inducer of caspase 3 in both cell lines
Caspase 7 activation (caspase 7 in A549 cells): activate
Caspase 7 activation (caspase 7 in MCF7 cells): activate
Expression of ER stress markers GRP78, ATF6, IRE1, PERK [1]: increased
Expression of ER stress markers GRP78, ATF6, IRE1, PERK [2]: increased
Mitochondrial ROS (MitoSOX) (A549 cells [3]): increased
Mitochondrial ROS (MitoSOX) (MCF7 cells [4]): increased
ROS levels in whole cells (DCFDA-AM) (MCF7 and A549 cells): higher
Mitochondrial depolarization (JC-1 staining) (A549 cells [5]): totally insensitive
Mitochondrial depolarization (JC-1 staining) (MCF7 cells [6]): strong depolarization
Ki (sigma-2 receptors): 15.8 nM
